Residue numbers refer to the chain shown, from its start. Values joined by “and” are separate entries in the source; they are usually repeats but may differ in a detail not shown here. Equal entries are not always repeated.
Legend:
Type in all cases: cell-based
C3aR P99^3.29A = target: T1, C3aR P99^3.29A (Homo sapiens, UniProt Q16581, P99A); assay: GloSensor-based cAMP assay, C3aR mutant P99A
T1 construct: expressed in transfected cells; host or cells: HEK293T
T1 sequence (Q16581 1-482 P99A): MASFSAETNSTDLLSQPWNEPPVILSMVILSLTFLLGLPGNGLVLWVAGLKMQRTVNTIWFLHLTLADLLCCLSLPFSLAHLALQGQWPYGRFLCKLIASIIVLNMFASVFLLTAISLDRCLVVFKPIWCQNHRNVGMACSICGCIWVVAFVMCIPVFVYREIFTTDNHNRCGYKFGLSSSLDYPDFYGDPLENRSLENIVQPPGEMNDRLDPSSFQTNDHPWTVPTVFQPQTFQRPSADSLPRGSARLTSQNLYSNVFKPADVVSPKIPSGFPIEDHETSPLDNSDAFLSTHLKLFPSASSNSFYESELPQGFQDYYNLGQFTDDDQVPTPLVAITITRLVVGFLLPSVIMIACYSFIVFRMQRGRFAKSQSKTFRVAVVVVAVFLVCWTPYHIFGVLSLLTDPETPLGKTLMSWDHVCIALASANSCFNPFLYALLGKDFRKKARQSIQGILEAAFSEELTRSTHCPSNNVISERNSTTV
Protocol: (§1) HEK293T cells were seeded on 6-well plates (NEST) and transfected with pGlosensor™-22F plasmids (Promega) and pcDNA3.1 plasmids encoding C3aR or its mutants an with N-terminal FLAG tag. After 48 h, cells were detached with Accutase solution (Sigma-Aldrich) and washed with PBS, and resuspended in assay buffer (CO2-independent medium with 0.5 mg mL^−1D-luciferin). 100,000–200,000 cells were seeded on 96-well white bottom plates (SPL) and incubated at 37 °C for 45 min followed by 45 min incubation at room temperature. After 90 min of incubation, basal luminescence signals were recorded. In total, 25 μl of test ligand with various concentrations and 1 μM Forskolin (Sigma-Aldrich) were treated to the cells and luminescence signals were measured by Tristar 2 LB 942 multimode reader (Berthold). […] Relative luminescence unit (%) was calculated with the signal of wells treated with vehicle as 0% and the signal of wells treated with 1 μM Forskolin as 100% (DiRaddo et al, [2014]). Nonlinear regression was performed using a three-parameter logistic equation.

C3aR R161^ECL2A = target: T2, C3aR R161^ECL2A (Homo sapiens, UniProt Q16581, R161A); assay: GloSensor-based cAMP assay, C3aR mutant R161A
T2 construct: expressed in transfected cells; host or cells: HEK293T
T2 sequence (Q16581 1-482 R161A): T1 sequence (Q16581 1-482 P99A) with A99P, R161A
Protocol: as §1

C3aR I421^7.39A = target: T3, C3aR I421^7.39A (Homo sapiens, UniProt Q16581, I421A); assay: GloSensor-based cAMP assay, C3aR mutant I421A
T3 construct: expressed in transfected cells; host or cells: HEK293T
T3 sequence (Q16581 1-482 I421A): T1 sequence (Q16581 1-482 P99A) with A99P, I421A
Protocol: as §1

[1] = Dunnett's multiple comparisons test, WT minus mutant

Compound: Cc1cc(C(c2ccc(Cl)cc2)c2ccc(Cl)cc2)sc1C(=O)N[C@@H](CCCNC(=N)N)C(=O)O [JR14a, reference compound]
- Mean Diff. of pIC50, WT vs. P99A (C3aR P99^3.29A; [1]): -0.103
- IC50 (C3aR P99^3.29A; IC50, P99^3.29A, dose-response plot): 4.08 nM
- remaining activity at 1 µM (C3aR P99^3.29A; P99A, Log[JR14a (M)] -6, single replicates, read-out: cAMP response (% Forskolin)): 8.38%
- remaining activity at 0.1 µM (C3aR P99^3.29A; P99A, Log[JR14a (M)] -7, single replicates, read-out: cAMP response (% Forskolin)): 9.9%
- remaining activity at 0.001 µM (C3aR P99^3.29A; P99A, Log[JR14a (M)] -9, single replicates, read-out: cAMP response (% Forskolin)): 77.4%
- remaining activity at 0.0001 µM (C3aR P99^3.29A; P99A, Log[JR14a (M)] -10, single replicates, read-out: cAMP response (% Forskolin)): 102%
- remaining activity at 10 pM (C3aR P99^3.29A; P99A, Log[JR14a (M)] -11, single replicates, read-out: cAMP response (% Forskolin)): 104%
- ΔpIC50 ± SE of Diff. (C3aR P99^3.29A; P99^3.29A relative to WT C3aR): 0.10 ± 0.06
- decrease in IC50 values vs WT (C3aR P99^3.29A; P99^3.29 to Ala, relatively mild effect on downstream signaling): < 10 fold
- IC50 (C3aR P99^3.29A; pIC50 (Replicate), P99^3.29A, individual replicates): 4.9 nM and 5.25 nM and 2.69 nM
- Mean Diff. of pIC50, WT vs. R161A (C3aR R161^ECL2A; [1]): -0.085
- IC50 (C3aR R161^ECL2A; IC50, R161^ECL2A, dose-response plot, Not calculated = entire loss of signaling): 2.28 nM
- remaining activity at 1 µM (C3aR R161^ECL2A; R161A, Log[JR14a (M)] -6, single replicates, read-out: cAMP response (% Forskolin)): 11.8%
- remaining activity at 0.1 µM (C3aR R161^ECL2A; R161A, Log[JR14a (M)] -7, single replicates, read-out: cAMP response (% Forskolin)): 13.6%
- remaining activity at 0.01 µM (C3aR R161^ECL2A; R161A, Log[JR14a (M)] -8, single replicates, read-out: cAMP response (% Forskolin)): 41.3%
- remaining activity at 0.001 µM (C3aR R161^ECL2A; R161A, Log[JR14a (M)] -9, single replicates, read-out: cAMP response (% Forskolin)): 79.3%
- remaining activity at 0.0001 µM (C3aR R161^ECL2A; R161A, Log[JR14a (M)] -10, single replicates, read-out: cAMP response (% Forskolin)): 99.1%
- remaining activity at 10 pM (C3aR R161^ECL2A; R161A, Log[JR14a (M)] -11, single replicates, read-out: cAMP response (% Forskolin)): 108%
- ΔpIC50 ± SE of Diff. (C3aR R161^ECL2A; R161^ECL2A relative to WT C3aR): 0.09 ± 0.04
- decrease in IC50 values vs WT (C3aR R161^ECL2A; R161^ECL2 to Ala, relatively mild effect on downstream signaling): < 10 fold
- IC50 (C3aR R161^ECL2A; pIC50 (Replicate), R161^ECL2A, individual replicates): 3.72 nM and 1.86 nM and 1.74 nM
- Mean Diff. of pIC50, WT vs. I421A (C3aR I421^7.39A; [1]): 1.797
- remaining activity at 0.01 µM (C3aR I421^7.39A; I421A, Log[JR14a (M)] -8, single replicates, read-out: cAMP response (% Forskolin)): 91.4%
- remaining activity at 0.001 µM (C3aR I421^7.39A; I421A, Log[JR14a (M)] -9, single replicates, read-out: cAMP response (% Forskolin)): 92.7%
- remaining activity at 0.0001 µM (C3aR I421^7.39A; I421A, Log[JR14a (M)] -10, single replicates, read-out: cAMP response (% Forskolin)): 96.4%
- remaining activity at 10 pM (C3aR I421^7.39A; I421A, Log[JR14a (M)] -11, single replicates, read-out: cAMP response (% Forskolin)): 93.5%
- reduction in ligand-induced signaling vs WT (C3aR I421^7.39A; I421^7.39A mutant): 60 fold
- ΔpIC50 ± SE of Diff. (C3aR I421^7.39A; I421^7.39A relative to WT C3aR): -1.80 ± 0.06
- IC50 (C3aR I421^7.39A; IC50, I421^7.39A, dose-response plot): 204 nM
- IC50 (C3aR I421^7.39A; pIC50 (Replicate), I421^7.39A, individual replicates): 229 nM and 263 nM and 331 nM and 115 nM
- IC50 (C3aR I421^7.39A; pIC50 ± SEM (Mean), I421^7.39A, mean of independent experiments): 219 nM
